Assay results published in patent US20230139445A1, “BACTERIAL CELLS WITH IMPROVED TOLERANCE TO DIACIDS” (priority 2016, published 2023).
Read-outs that look alike come from different tables or passages of the source.

Key:
[1] = system: Escherichia coli K-12 MG1655; test: Growth of K-12 MG1655 in varying concentrations of fumaric, itaconic, malic and succinic acid, Growth Profiler; format: cell-based
Protocol: Five colonies from wild-type K-12 MG1655 and 10 individual colonies deriving from each population were inoculated into 300 μL M9+1% glucose in 96 well deepwell plates and incubated in a 300 rpm plate shaker at 37° C. The next day, cells were diluted 10× in M9+1% glucose and 30 μL was transferred into clear-bottomed 96 well half-deepwell plates (with rectangular wells) containing M9+1% glucose and M9+1% glucose+52.78 g/L glutaric acid or 55.56 g/L adipic acid, such that the final concentration of glutaric acid or adipic acid was 47.5 g/L or 50 g/L, respectively. In addition, cryogenic glycerol stocks of the overnight culture were saved in a 96 well plate format. Half deepwell plates were incubated at 37° C. with 225 rpm shaking in a Growth Profiler (Enzyscreen), with optical scans of the plates taken at 15 minute intervals. Green pixel values integrated over a 1 mm diameter circular area in each well were converted to OD600 values using a previously determined calibration between OD600 and green pixel values.
Additionally, each evolved isolate was tested for cross-tolerance toward other dicarboxylic acids of interest. […] All diacids tested were either the neutral sodium salts, or the free diacid was neutralized with sodium hydroxide to pH 7.0 for testing.

[2] = system: Escherichia coli K-12 MG1655 and evolved isolates; format: cell-based; settings: 50 g/L succinic acid
Method in brief: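 Wild-type MG1655 and evolved isolates, precultured overnight in M9 + 1% glucose at 37 °C, were diluted into M9 + 1% glucose. Growth at 37 °C, 225 rpm, scanned every 15 min; pixel values calibrated to OD600. Diacids tested as sodium salts or neutralized to pH 7.0.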

O=C(O)CCC(=O)O [succinic acid]
μ (mean) ([1]; growth rate of K-12 MG1655, 10 g/L diacid (sodium salt)): 0.665 h^1 | μ (mean) ([1]; growth rate of K-12 MG1655, 20 g/L diacid (sodium salt)): 0.610 h^1 | μ (mean) ([1]; growth rate of K-12 MG1655, 30 g/L diacid (sodium salt)): 0.496 h^1 | μ (mean) ([1]; growth rate of K-12 MG1655, 40 g/L diacid (sodium salt)): 0.345 h^1 | μ (mean) ([1]; growth rate of K-12 MG1655, 50 g/L diacid (sodium salt)): 0.179 h^1 | μ (mean) ([1]; growth rate of K-12 MG1655, 60 g/L diacid (sodium salt)): 0.127 h^1 | tlag (mean) ([1]; lag time of K-12 MG1655, 10 g/L diacid (sodium salt)): 5.4 h | tlag (mean) ([1]; lag time of K-12 MG1655, 20 g/L diacid (sodium salt)): 6.7 h | tlag (mean) ([1]; lag time of K-12 MG1655, 30 g/L diacid (sodium salt)): 8.9 h | tlag (mean) ([1]; lag time of K-12 MG1655, 40 g/L diacid (sodium salt)): 13.4 h | tlag (mean) ([1]; lag time of K-12 MG1655, 50 g/L diacid (sodium salt)): 22.4 h | tlag (mean) ([1]; lag time of K-12 MG1655, 60 g/L diacid (sodium salt)): 42.5 h | growth rate μ (mean) ([2]; strain ADIP1-1): 0.299 h⁻¹ | lag time tlag (mean) ([2]; strain ADIP1-1): 16.1 h | growth rate μ (mean) ([2]; strain ADIP1-9): 0.290 h⁻¹ | lag time tlag (mean) ([2]; strain ADIP1-9): 14.5 h | growth rate μ (mean) ([2]; strain ADIP2-5): 0.260 h⁻¹ | lag time tlag (mean) ([2]; strain ADIP2-5): 25.5 h | growth rate μ (mean) ([2]; strain ADIP2-6): 0.278 h⁻¹ | lag time tlag (mean) ([2]; strain ADIP2-6): 21.7 h | growth rate μ (mean) ([2]; strain ADIP2-10): 0.262 h⁻¹ | lag time tlag (mean) ([2]; strain ADIP2-10): 22.0 h | growth rate μ (mean) ([2]; strain ADIP3-2): 0.311 h⁻¹ | lag time tlag (mean) ([2]; strain ADIP3-2): 13.2 h | growth rate μ (mean) ([2]; strain ADIP3-4): 0.308 h⁻¹ | lag time tlag (mean) ([2]; strain ADIP3-4): 12.7 h | growth rate μ (mean) ([2]; strain ADIP3-8): 0.304 h⁻¹ | lag time tlag (mean) ([2]; strain ADIP3-8): 13.8 h | growth rate μ (mean) ([2]; strain ADIP4-1): 0.206 h⁻¹ | lag time tlag (mean) ([2]; strain ADIP4-1): 15.7 h | growth rate μ (mean) ([2]; strain ADIP4-8): 0.228 h⁻¹ | lag time tlag (mean) ([2]; strain ADIP4-8): 15.8 h | growth rate μ (mean) ([2]; strain ADIP5-2): 0.192 h⁻¹ | lag time tlag (mean) ([2]; strain ADIP5-2): 13.5 h | growth rate μ (mean) ([2]; strain ADIP5-6): 0.361 h⁻¹ | lag time tlag (mean) ([2]; strain ADIP5-6): 12.1 h | growth rate μ (mean) ([2]; strain ADIP6-3): 0.246 h⁻¹ | lag time tlag (mean) ([2]; strain ADIP6-3): 14.9 h | growth rate μ (mean) ([2]; strain ADIP6-9): 0.210 h⁻¹ | lag time tlag (mean) ([2]; strain ADIP6-9): 18.4 h | growth rate μ (mean) ([2]; strain ADIP6-10): 0.285 h⁻¹ | lag time tlag (mean) ([2]; strain ADIP6-10): 12.4 h | growth rate μ (mean) ([2]; strain ADIP7-2): 0.294 h⁻¹ | lag time tlag (mean) ([2]; strain ADIP7-2): 12.5 h | growth rate μ (mean) ([2]; strain ADIP7-5): 0.274 h⁻¹ | lag time tlag (mean) ([2]; strain ADIP7-5): 12.4 h | growth rate μ (mean) ([2]; strain ADIP8-3): 0.146 h⁻¹ | lag time tlag (mean) ([2]; strain ADIP8-3): 22.1 h | growth rate μ (mean) ([2]; strain ADIP8-7): 0.163 h⁻¹ | lag time tlag (mean) ([2]; strain ADIP8-7): 23.2 h | growth rate μ (mean) ([2]; strain ADIP8-10): 0.131 h⁻¹ | lag time tlag (mean) ([2]; strain ADIP8-10): 20.0 h | growth rate μ (mean) ([2]; strain GLUT1-3): 0.231 h⁻¹ | lag time tlag (mean) ([2]; strain GLUT1-3): 14.5 h | growth rate μ (mean) ([2]; strain GLUT1-9): 0.194 h⁻¹ | lag time tlag (mean) ([2]; strain GLUT1-9): 20.8 h | growth rate μ (mean) ([2]; strain GLUT1-10): 0.246 h⁻¹ | lag time tlag (mean) ([2]; strain GLUT1-10): 20.0 h | growth rate μ (mean) ([2]; strain GLUT2-1): 0.232 h⁻¹ | lag time tlag (mean) ([2]; strain GLUT2-1): 14.7 h | growth rate μ (mean) ([2]; strain GLUT2-9): 0.213 h⁻¹ | lag time tlag (mean) ([2]; strain GLUT2-9): 14.4 h | growth rate μ (mean) ([2]; strain GLUT2-10): 0.277 h⁻¹ | lag time tlag (mean) ([2]; strain GLUT2-10): 13.4 h | growth rate μ (mean) ([2]; strain GLUT3-5): 0.242 h⁻¹ | lag time tlag (mean) ([2]; strain GLUT3-5): 16.1 h | growth rate μ (mean) ([2]; strain GLUT3-7): 0.235 h⁻¹ | lag time tlag (mean) ([2]; strain GLUT3-7): 15.3 h | growth rate μ (mean) ([2]; strain GLUT3-9): 0.221 h⁻¹ | lag time tlag (mean) ([2]; strain GLUT3-9): 20.6 h | growth rate μ (mean) ([2]; strain GLUT4-1): 0.263 h⁻¹ | lag time tlag (mean) ([2]; strain GLUT4-1): 16.3 h | growth rate μ (mean) ([2]; strain GLUT4-4): 0.242 h⁻¹ | lag time tlag (mean) ([2]; strain GLUT4-4): 16.6 h | growth rate μ (mean) ([2]; strain GLUT4-10): 0.231 h⁻¹ | lag time tlag (mean) ([2]; strain GLUT4-10): 15.7 h | growth rate μ (mean) ([2]; strain GLUT5-4): 0.281 h⁻¹ | lag time tlag (mean) ([2]; strain GLUT5-4): 17.0 h | growth rate μ (mean) ([2]; strain GLUT5-5): 0.264 h⁻¹ | lag time tlag (mean) ([2]; strain GLUT5-5): 18.4 h | growth rate μ (mean) ([2]; strain GLUT5-9): 0.244 h⁻¹ | lag time tlag (mean) ([2]; strain GLUT5-9): 18.4 h | growth rate μ (mean) ([2]; strain GLUT6-4): 0.241 h⁻¹ | lag time tlag (mean) ([2]; strain GLUT6-4): 14.2 h | growth rate μ (mean) ([2]; strain GLUT6-5): 0.243 h⁻¹ | lag time tlag (mean) ([2]; strain GLUT6-5): 13.9 h | growth rate μ (mean) ([2]; strain GLUT6-10): 0.211 h⁻¹ | lag time tlag (mean) ([2]; strain GLUT6-10): 14.4 h | growth rate μ (mean) ([2]; strain GLUT7-2): 0.223 h⁻¹ | lag time tlag (mean) ([2]; strain GLUT7-2): 14.9 h | growth rate μ (mean) ([2]; strain GLUT7-6): 0.195 h⁻¹ | lag time tlag (mean) ([2]; strain GLUT7-6): 17.8 h | growth rate μ (mean) ([2]; strain GLUT7-7): 0.156 h⁻¹ | lag time tlag (mean) ([2]; strain GLUT7-7): 19.9 h | growth rate μ (mean) ([2]; strain GLUT8-5): 0.198 h⁻¹ | lag time tlag (mean) ([2]; strain GLUT8-5): 16.4 h | growth rate μ (mean) ([2]; strain GLUT8-6): 0.236 h⁻¹ | lag time tlag (mean) ([2]; strain GLUT8-6): 34.1 h | growth rate μ (mean) ([2]; strain GLUT8-9): 0.250 h⁻¹ | lag time tlag (mean) ([2]; strain GLUT8-9): 38.0 h | growth rate μ (mean) ([2]; strain MG1655 (Table 28)): 0.169 h⁻¹ | lag time tlag (mean) ([2]; strain MG1655 (Table 28)): 20.2 h | growth rate μ (mean) ([2]; strain MG1655 (Table 29)): 0.143 h⁻¹ | lag time tlag (mean) ([2]; strain MG1655 (Table 29)): 23.8 h
